From patent US7972615B2, “Peptide compositions for coating metal medical devices with vancomycin” (Affinergy, Inc., priority 2008, dated 2011)
Square brackets hold non-standard residues; d marks the D form. Ends that are not written are not given here. miniPeg = miniPEG linker unit; Aun = NCCCCCCCCCCC(=O)O

What was measured:
[1] = assay type: binding; conditions: FIG. 1; 18 hour incubation in 10% BSA+10 mM guanidinium chloride
Excerpt: In this example, illustrated are unexpected beneficial properties of the composition of the invention, including but not limited to, one or more improved biophysical properties. Such one or more unexpected beneficial properties of a composition of the invention may comprise an increase in stability. An increase in stability may comprise any one or more of resistance to chemical denaturation, resistance to proteolytic degradation, improved retention to a substrate (e.g., resistance to being competed off a substrate to which it is bound, such as by proteins or other biomolecules found in body tissues). Thus, to ascertain a beneficial property of a composition of the invention, it is compared to the properties of a component of the composition-namely, a substrate-binding peptide by itself (e.g., without fatty acid covalently coupled thereto). An assay was developed that, from our direct comparisons (see, e.g., discussion of FIG. 2 below, and Example 7 herein), mimicked the effect of incubation of substrate-binding peptide with human plasma on stability of binding of a substrate-binding peptide to its substrate. The assay utilized incubations in the presence of 10% bovine serum album (BSA) with 10 mM guanidinium chloride. The high BSA concentration mimics the elevated albumin content of human plasma, and the guanidinium chloride is used to compete with any charged interactions involved in binding of the substrate-binding peptide to its substrate.
In this assay, two immunoassay plates were prepared for a “side-by-side” comparison of binding of a test sample (substrate-binding peptide or composition of the invention) to its substrate with or without the presence of 10% BSA with 10 mM guanidinium chloride. The wells of each 96-well polypropylene plate were incubated with 350 μl BSA 1% in PBS for 30 minutes at 20° C. with 500 rpm shaking. To each well was added one acetone-cleaned 3/32″ 316LVM stainless steel bead, followed by addition of dilutions in PBS of the test sample in a range of concentrations starting from 10 μM. Final volume in each well was 200 μl. The plates were incubated for 1 hour at 20° C. with 500 rpm shaking to allow for the binding to occur. The beads were washed 3 times with 250 μl PBS using a plate washer. […]
In the immunoassay for detecting binding without the presence of 10% BSA with 10 mM guanidinium chloride, added to each well was 200 μl of streptavidin AP (AP is alkaline phosphatase) at 1/200 in TBS+1% BSA. […] When color has developed, each well was read at OD405 nm in endpoint mode using a plate reader. […] When color has developed, the wells were read at OD405 nm in endpoint mode using a plate reader. […]

[2] = Critical micelle concentration (CMC) assay with methyl orange; assay type: physicochemical; conditions: pH 7 PBS, A484
Description: Formation of a composition of the invention, and evidence of macromolecular network formation, may be monitored or quantified by any means known in the art. In this example, macromolecular formation was detected using a standard assay for determining critical micelle concentration (“CMC”). In this assay, a solution containing the composition of the invention (in a range of concentrations in pH 7 phosphate buffered saline (“PBS”)) was mixed with a solution of methyl orange (0.04 mM in PBS), and the absorbance of the mixture was measured at 484 nm (A484). CMC is the concentration at which a sharp decrease in absorbance at A484 is observed, a change in the optical properties of methyl orange when trapped in a hydrophobic phase, such as caused by self-association as a macromolecular network (Table 7, “CMC”). Also included in this assay were an assay control peptide having an amino acid sequence of SEQ ID NO:122 (Table 7, “Control”), and compound 119 (a PEGylated peptide, the peptide having an amino acid sequence of SEQ ID NO:122, as described in more detail in Example 6 herein).

[3] = Stent flow model (in vitro model for in vivo stability on a stent); assay type: binding; conditions: radiolabelled
Description: In this example, an in vitro model for in vivo stability on a medical device comprising a stent was performed. The stent flow model included a “circulatory system” comprising a peristaltic pump and clear silicone tubing into which is placed a stent (8 mm, stainless steel) coated with a composition according to the invention. Coating of the stents was accomplished by incubating the stents with radiolabelled composition 132 (specific activity 2,400 cpm/pmole at 20 μM in PBS) for 1 hour at 20° C., followed by extensive washing with buffer. […] In another variation of the stent flow model, 10% BSA+10 mM guanidinium chloride was circulated through the circulatory system at a flow rate of 5 ml/min for 18 hours at 37° C. After circulation in the respective variations of the stent flow model, the coated stents were then counted for radioactivity. To serve as an assay “control”, some coated stents were not placed in the stent flow model, but rather counted for radioactive counts to provide a reference from which percent retention could be calculated for those coated stents included in the stent flow model.

[4] = Vancomycin loading onto titanium bead, HPLC of HCl eluate; assay type: binding; conditions: components mixed with vancomycin, 30 mins at 20° C., washed three times
Description: The experimental procedure used for the embodiments described above was as follows. […] All three components were mixed and then applied to the metal bead. […] All three components were mixed and then applied to the metal bead. […] The mixtures were applied to the metal beads and incubated for 30 mins at 20° C. with 700 rpm shaking. The beads were washed three times with 350ul PBS. Beads were analyzed as follows: 200 ul of 100 mM HCl was added to each bead and incubated for 30 mins at 20° C. with 1,000 rpm shaking. The eluate from each bead was analyzed by HPLC using Phenomenex Luna 3 um column, 50×4.60 mm. Output was compared to a standard curve for vancomycin to determine the amount of vancomycin retained onto the metal bead.

Q: For “119: Fmoc-NH-(PEG)27-CO2H covalently coupled to a peptide having the amino acid sequence of SEQ ID NO:122 (PEGylated peptide) (SSHRTNHKKNNPKKKNKTRGSSGK; not fully specified (N-terminus); also: Fmoc-NH-(PEG)27-CO2H covalently coupled, site not given here) [Compound 119, reference compound]”, which “retention of binding of substrate-binding peptide component to its substrate, compared to substrate-binding peptide alone (SEQ ID NO: 122)” value [1] is on record?
A: Its value is “failed to promote retention”.

Q: With “120: amino acid sequence YWAWAYAW (SEQ ID NO:129) covalently coupled to a peptide having the amino acid sequence of SEQ ID NO:122 (YWAWAYAWSSHRTNHKKNNPKKKNKTRGSSGK) [Compound 120, reference compound]” as the substance, how does the “retention of binding of substrate-binding peptide component to its substrate, compared to substrate-binding peptide alone (SEQ ID NO: 122)” value [1] read?
A: The value was “failed to promote retention”.

Q: For “AUD-AUD-AUD-AUD-AUD-AUD-SEQ ID NO: 122 ([Aun][Aun][Aun][Aun][Aun][Aun]SSHRTNHKKNNPKKKNKTRGSSGK) [Compound 130]”, which CMC [2] is on record?
A: The CMC was 0.041 µM.

Q: For “AUD-AUD-AUD-AUD-SEQ ID NO: 122 ([Aun][Aun][Aun][Aun]SSHRTNHKKNNPKKKNKTRGSSGK) [Compound 122]”, which “retention of binding of substrate-binding peptide component to its substrate, compared to substrate-binding peptide alone (SEQ ID NO: 122)” value [1] is on record?
A: The value was “significantly improved retention”.

Q: For “AUD-AUD-K-AUD-AUD-AUD-AUD-SEQ ID NO: 122 ([Aun][Aun]K[Aun][Aun][Aun][Aun]SSHRTNHKKNNPKKKNKTRGSSGK) [Compound 123]”, which “retention of binding of substrate-binding peptide component to its substrate, compared to substrate-binding peptide alone (SEQ ID NO: 122)” value [1] is on record?
A: The value was “significantly improved retention”.

Q: For “Ac-Y-AUD-AUD-AUD-AUD-AUD-AUD-SEQ ID NO: 122 (Ac-Y[Aun][Aun][Aun][Aun][Aun][Aun]SSHRTNHKKNNPKKKNKTRGSSGK) [Compound 132]”, which “composition remained bound to the coated stents” value ([3]; 10% BSA+10 mM guanidinium chloride circulated at 5 ml/min for 18 hours at 37° C.) is on record?
A: Its value is “over 90%”.

Q: And the “composition remained bound to the coated stents” value ([3]; human plasma circulated at 5 ml/min for 7 days at 37° C.)?
A: The value was “over 90%”.

Q: For “MA-Ahx-SSCLIDIYGVCHN FDAY-miniPeg-miniPeg-HKKNNPKKKNKTRGSSK(Biotin) [SEQ ID NO: 164]”, which “Vancomycin Load” value [4] is on record?
A: The value was 278 pmol/cm2.

Q: For “SSSCLIDMYGVCHNFDGAYDSSRG-miniPeg-miniPeg-SSHRTNHKKNNPKKKNKTRGSSGK (SSSCLIDMYGVCHNFDGAYDSSRG[miniPeg][miniPeg]SSHRTNHKKNNPKKKNKTRGSSGK; cysteine pairing not given here) [SEQ ID NO: 163]”, which “Vancomycin Load” value [4] is on record?
A: Its value is 54 pmol/cm2.
